Assays:
[1] = test system: TF-1 cells; experiment: Stimulation of TF-1 cell proliferation by rhIL-6 (control experiments); assay type: cell-based, human
Experimental: TF-1, a GM-CSF dependent human erythroleukemia cell line, was purchased from ATCC(CRL-2003). IL-6 is a potent stimulator of TF-1 cell proliferation. The use of TF-1 cells for determining efficacy of IL-6, IL-6R, and/or gp130 inhibitors is well-established in the art.
TF-1 cells were maintained in growth medium (RPMI 1640 supplemented with 50 uM 2-ME, antibiotic-antimycotic), 10% FBS and 5 ng/ml hGM-CSF (Leukine). Prior to assay, TF-1 cells were washed and cultured overnight in growth medium plus 1% FBS and Leukine. TF-1 cells were then washed three times with growth medium plus 1% FBS, without Leukine prior to the assay.
TF-1 cells (1×10^4/well) were cultured in the presence or absence of the anti-IL-6 inhibitors-hIL-6 mixture in a 96-well flat bottom plate (Becton Dickinson) in a final volume of 200 ul/well for 40 hr in a humidified incubator at 37° C., 5% CO2. Cells were pulse-labeled with 1 uCi/well of [^3H]-Thymidine (Amersham Biosciences) during the final 16 hr of culture. Plates were harvested with a semiautomatic cell harvester (Tomtec, Inc.) and [^3H]-Thymidine incorporation was measured using a Microbeta-counter (Wallac-Perkin Elmer). Results are expressed as average cpm from triplicate wells.
Control experiments determined 0.2 ng/mL as the EC50 of rhIL-6 for stimulation of TF-1 cell proliferation.

[2] = test system: Human heparinized-whole blood; experiment: IL-6 stimulation of IgE in human whole blood; assay type: cell-based; settings: 50 ng/ml IL-6, 6.5 hr; compared to unstimulated controls or anti-IL-6 mAb controls
Experimental: Human heparinized-whole blood was obtained from six normal individuals from Stanford University Blood Bank. The avimer used in these experiments was generated as described in the above examples.
Briefly, 500 ul of heparinized human blood from several donors was cultured in 12×75 mm tubes or individual wells of a 24 well plate in the presence of 50 ng/ml of human IL-6; exemplary IL-6/IgG binding tetramers, a negative control avimer, 0.01-600 nM; anti-IL-6 monoclonal antibody (Clone 6708-111, R&D Systems) or mouse IgG1 isotype control antibody (eBioscience), 3, 10 or 30 ug/ml, or no inhibitors. Inhibitors or controls were diluted in RPMI1640+10% human AB serum before addition to the cultures. Final volume was 1 ml per sample.
Samples were incubated for 6.5 hr at 37° C. with 5% CO2. Samples were removed from incubator and centrifuged at 1500 rpm for 10 minutes at room temperature. Plasma samples were divided in two portions and one set was shipped to Rules Based Medicine for determination of the concentrations of IL-6- and avimer-regulated analytes. The second set of plasma samples was stored at −80° C.

[3] = target: T1, IL-6R (Homo sapiens, UniProt P08887); settings: dose-dependent manner; Nishimoto et al; cited from earlier work
T1 sequence (P08887 20-468): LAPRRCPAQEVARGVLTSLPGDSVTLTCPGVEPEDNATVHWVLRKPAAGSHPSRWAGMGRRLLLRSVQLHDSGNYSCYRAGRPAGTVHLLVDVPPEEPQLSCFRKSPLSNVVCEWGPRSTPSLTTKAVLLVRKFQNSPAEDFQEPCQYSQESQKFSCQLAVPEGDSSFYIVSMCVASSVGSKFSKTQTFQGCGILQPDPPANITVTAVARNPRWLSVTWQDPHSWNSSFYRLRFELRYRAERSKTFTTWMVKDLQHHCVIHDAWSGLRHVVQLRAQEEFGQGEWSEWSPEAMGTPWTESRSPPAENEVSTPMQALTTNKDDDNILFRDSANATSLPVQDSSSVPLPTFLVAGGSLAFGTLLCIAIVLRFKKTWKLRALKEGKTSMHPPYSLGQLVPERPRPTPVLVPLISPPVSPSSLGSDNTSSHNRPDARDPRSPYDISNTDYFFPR

With “rhIL-6: recombinant human IL-6 (R&D Systems)” the “EC50 for stimulation of TF-1 cell proliferation” value [1] was 0.2 ng/mL and the “increase of IgE concentration in supernatants” value [2] was 2-3 fold.
For “MRA: humanized anti-IL-6R antibody (MRA)”, the HDL increase [3] is given as roughly 26% and the LDL increase [3] is given as 12-23%.

Reference: US7820790B2, “IL-6 binding proteins” (Amgen Mountain View Inc., priority 2005, dated 2010)
